Assay [1] has as its target DPP1 (Homo sapiens (Human), UniProt P53634). Kind of assay: DPP1 activity inhibition test on U937 cells. In kind it is cell-based. To be noted: substrate h-Gly-phe-AFC; for inhibition at 0.005 µM: U-937, 5 nM compound; for inhibition at 0.05 µM: U-937, 50 nM compound; for pIC50: intracellular enzyme activity. Here is the method:
After incubation at 37° C. for 1 h, add h-Gly-phe-AFC (10 μL) to each well and start reaction.

Assay [2] addresses rhCathepsin C/DPP1 (Homo sapiens (Human), UniProt P53634). Kind of assay: Test for inhibition of DPP1 enzyme activity. As to conditions: recombinant human cathepsin C/DPP1; substrate Gly-Arg-AMC. In kind it is biochemical. Here is the method: Recombinant human cathepsin, rhCathepsin C/DPP1, purchased from R&D systems
Gly-Arg-AMC (hydrOCHloride), purchased from Cayman chemical
• 1) Preparation and handling of compounds: Accurately weigh the compound and dissolve it in […] of DMSO to prepare a […] of the bulk, which is further diluted as required. • 2) Screening test: Dilute recombinant human cathepsin rhCathepsin C/DPP1 and recombinant human cathepsin rhCathepsin L with an activating buffer solution, and incubate at 37° C. for 60 min. Add 4 μL of test compound to the white well of the 384-well plate. Add 4 μL of the enzyme mixture after incubation to the white wells. Block the 384-well plate and allow to stand at room temperature for 30 min, and add 8 μL of 2-fold diluted Gly-Arg-AMC (hydrochloride). Block the 384-well plate and allow to stand at room temperature for 2 h. Prepare 4× stop solution and add 4 μL stop solution to white wells. Read fluorescence data on the fluorescence meter Victor Nivo35. • 3) Data analysis:
[…] using Prism Graphpad 8.0.

pIC50: −log10 of the molar value.

DPP1, sequence (P53634 25-463): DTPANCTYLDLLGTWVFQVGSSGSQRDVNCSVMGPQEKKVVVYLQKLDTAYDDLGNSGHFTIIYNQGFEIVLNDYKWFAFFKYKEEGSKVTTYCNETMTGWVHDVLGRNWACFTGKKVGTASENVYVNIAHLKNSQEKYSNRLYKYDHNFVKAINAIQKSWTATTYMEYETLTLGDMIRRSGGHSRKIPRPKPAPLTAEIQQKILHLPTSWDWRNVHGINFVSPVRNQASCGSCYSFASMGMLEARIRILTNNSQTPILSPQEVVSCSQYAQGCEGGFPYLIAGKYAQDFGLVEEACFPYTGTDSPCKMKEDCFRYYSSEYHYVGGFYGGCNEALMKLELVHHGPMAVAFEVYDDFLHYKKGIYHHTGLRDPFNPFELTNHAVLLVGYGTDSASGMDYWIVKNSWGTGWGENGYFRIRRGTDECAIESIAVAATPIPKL
rhCathepsin C/DPP1, sequence (P53634 25-134): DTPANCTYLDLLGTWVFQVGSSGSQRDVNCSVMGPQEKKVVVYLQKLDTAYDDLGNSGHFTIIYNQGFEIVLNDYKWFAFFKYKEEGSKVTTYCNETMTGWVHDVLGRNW
rhCathepsin C/DPP1, sequence (P53634 231-394): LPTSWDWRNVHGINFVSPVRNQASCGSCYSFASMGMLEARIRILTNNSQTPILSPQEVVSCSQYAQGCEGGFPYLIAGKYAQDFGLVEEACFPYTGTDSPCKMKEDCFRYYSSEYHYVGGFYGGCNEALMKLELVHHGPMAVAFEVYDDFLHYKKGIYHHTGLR
rhCathepsin C/DPP1, sequence (P53634 395-463): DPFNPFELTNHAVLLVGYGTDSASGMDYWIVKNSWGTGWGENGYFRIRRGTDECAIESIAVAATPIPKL

With `C[C@H]1OC(=O)c2ccc(-c3ccc(C[C@@H](C#N)NC(=O)[C@@H]4CNCCCO4)c(F)c3)cc21` [Compound D75], in assay [1], the inhibition at 0.005 µM lay in the range of 30 to 75%, the inhibition at 0.05 µM is 75 to 100% and the negative logarithm of the IC50 (pIC50) is 8.42. In addition, in assay [2], the pIC50 is 8.64.

Turning to `N#C[C@H](Cc1ccc(-c2ccc3c(c2)COC3=O)cc1F)NC(=O)[C@@H]1CNCCCO1` [Compound D61], in assay [1], the inhibition at 0.005 µM was 30 to 75%, the inhibition at 0.05 µM was in the range of 75 to 100% and the pIC50 was 8.28. In addition, the negative logarithm of the IC50 (pIC50) in assay [2] is 8.60.

Consider `CN1CC(n2c(=O)oc3ccc(-c4ccc(C[C@@H](C#N)NC(=O)[C@@H]5CNCCCO5)c(F)c4)cc32)C1` [Compound D67], for which, in assay [1], the inhibition at 0.005 µM lay in the range of 30 to 75%, the inhibition at 0.05 µM lay in the range of 75 to 100% and the pIC50 was 7.49. Further, the pIC50 in assay [2] was 9.74.

In assay [1], `CC1OC(=O)c2ccc(-c3ccc(C[C@@H](C#N)NC(=O)[C@@H]4CNCCCO4)c(F)c3)cc21` (stereo partly shown) [Compound D73] showed an inhibition at 0.005 µM of 30 to 75%, an inhibition at 0.05 µM of 75 to 100% and a pIC50 of 8.42. The pIC50 in assay [2] is 8.60.

As to `C[C@H]1OC(=O)c2ccc(-c3ccc(C[C@@H](C#N)NC(=O)[C@@H]4CNCCCO4)[se]3)cc21` [Compound D126], in assay [2], the pIC50 was 7.97.

As for `C[C@@H]1OC(=O)c2ccc(-c3ccc(C[C@@H](C#N)NC(=O)[C@@H]4CNCCCO4)c(F)c3)cc21` [Compound D74], in assay [1], the inhibition at 0.005 µM was in the range of 30 to 75%, the inhibition at 0.05 µM lay within 75 to 100% and the pIC50 is 8.10. Moreover, in assay [2], the negative logarithm of the IC50 (pIC50) was 8.54.

For the molecule `CN1CC2(C1)OCc1ccc(-c3ccc(C[C@@H](C#N)NC(=O)[C@@H]4CNCCCO4)cc3)cc12` [Compound D20], in assay [1], the inhibition at 0.005 µM was 30 to 75%, the inhibition at 0.05 µM lay in the range of 75 to 100% and the pIC50 is 7.46. For the same molecule, in assay [2], the pIC50 was 8.44.

Consider `CN1CCC(=O)c2ccc(-c3ccc(C[C@@H](C#N)NC(=O)[C@@H]4CNCCCO4)c(F)c3)cc21` [Compound D118], for which the values for the pIC50 in assay [1] and in assay [2] were 8.68 and 8.80, respectively.

As for `N#C[C@H](Cc1ccc(-c2ccc3c(c2)CCC3=O)cc1F)NC(=O)[C@@H]1CNCCCO1` [Compound D60], in assay [1], the inhibition at 0.005 µM was 30 to 75%, the inhibition at 0.05 µM lay in the range of 75 to 100% and the pIC50 was 8.34. For the same molecule, in assay [2], the pIC50 is 8.43.

For `[2H]C([2H])([2H])[C@H]1OC(=O)c2ccc(-c3ccc(C[C@@H](C#N)NC(=O)[C@@H]4CNCCCO4)c(F)c3)cc21` [Compound D127], the pIC50 in assay [1] is 8.34; in assay [2], 8.38.

In assay [1], `N#C[C@H](Cc1ccc(-c2ccc3c(c2)C2(CN(C4COC4)C2)OC3)cc1F)NC(=O)[C@@H]1CNCCCO1` [Compound D57] gave an inhibition at 0.005 µM of 30 to 75%, an inhibition at 0.05 µM of 75 to 100% and a pIC50 of 8.00. The pIC50 in assay [2] is 8.66.

As to `CC1CNC[C@@H](C(=O)N[C@H](C#N)Cc2ccc(-c3ccc4oc(=O)n(C)c4c3)cc2F)OC1` (stereo partly shown) [Compound D85], in assay [1], the inhibition at 0.005 µM fell in the range of 30 to 75%, the inhibition at 0.05 µM is 75 to 100% and the pIC50 is 8.52. Moreover, the pIC50 in assay [2] was 8.49.

In assay [1], `Cn1c(=O)oc2ccc(-c3ccc(C[C@@H](C#N)NC(=O)[C@@H]4CNCC5(CC5)CO4)c(F)c3)cc21` [Compound D46] had an inhibition at 0.005 µM of 30 to 75%, an inhibition at 0.05 µM of 75 to 100% and a pIC50 of 8.52. Moreover, the pIC50 in assay [2] was 9.35.

In the case of `C[C@H]1OC(=O)c2ccc(-c3ccc(C[C@@H](C#N)NC(=O)[C@@H]4CNC[C@@H](F)CO4)c(F)c3)cc21` [Compound D123], the values for the pIC50 in assay [1] and in assay [2] were 7.82 and 8.85, respectively.

Turning to `CCN1CCC(=O)c2ccc(-c3ccc(C[C@@H](C#N)NC(=O)[C@@H]4CNCCCO4)c(F)c3)cc21` [Compound D120], the values for the pIC50 in assay [1] and in assay [2] were 8.47 and 8.64, respectively.

In assay [1], `CN1CC2(C1)OC(=O)c1ccc(-c3ccc(C[C@@H](C#N)NC(=O)[C@@H]4CNCCCO4)cc3)cc12` [Compound D19] gave an inhibition at 0.005 µM of 30 to 75%, an inhibition at 0.05 µM of 75 to 100% and a pIC50 of 7.39. For the same molecule, the pIC50 in assay [2] was 8.46.

Turning to `C[C@H]1CNC[C@@H](C(=O)N[C@H](C#N)Cc2ccc(-c3ccc4c(c3)N(C)CCC4=O)cc2F)OC1` [Compound D124], the pIC50 in assay [2] is 7.95.

With `CN1CC(n2c(=O)sc3ccc(-c4ccc(C[C@@H](C#N)NC(=O)[C@@H]5CNCCCO5)c(F)c4)cc32)C1` [Compound D70], in assay [1], the inhibition at 0.005 µM was 30 to 75%, the inhibition at 0.05 µM was 75 to 100% and the pIC50 is 7.88. Moreover, the pIC50 in assay [2] was 9.24.

As for `N#C[C@H](Cc1ccc(-c2ccc3oc(=O)n(CF)c3c2)cc1)NC(=O)[C@@H]1CNCCCO1` [Compound D02], in assay [1], the inhibition at 0.005 µM is 30 to 75%, the inhibition at 0.05 µM lay in the range of 75 to 100% and the pIC50 was 8.24. Besides, the pIC50 in assay [2] was 8.39.

In assay [1], `N#C[C@H](Cc1ccc(-c2ccc3c(c2)C2(COC2)OC3=O)cc1)NC(=O)[C@@H]1CNCCCO1` [Compound D21] showed an inhibition at 0.005 µM of 30 to 75%, an inhibition at 0.05 µM of 75 to 100% and a pIC50 of 7.54. Also, the pIC50 in assay [2] is 8.10.

As for `N#C[C@H](Cc1ccc(-c2ccc3oc(=O)n(C(F)F)c3c2)cc1)NC(=O)[C@@H]1CNCCCO1` [Compound D04], in assay [1], the inhibition at 0.005 µM is 30 to 75%, the inhibition at 0.05 µM fell in the range of 75 to 100% and the negative-log IC50 (pIC50) is 8.28. Further, the pIC50 in assay [2] was 8.41.

As to `Cn1cc(-n2c(=O)oc3ccc(-c4ccc(C[C@@H](C#N)NC(=O)[C@@H]5CNCCCO5)c(F)c4)cc32)cn1` [Compound D63], in assay [1], the inhibition at 0.005 µM was in the range of 30 to 75%, the inhibition at 0.05 µM was 75 to 100% and the pIC50 is 8.21. In assay [2], the pIC50 is 8.77.

Take `N#C[C@H](Cc1ccc(-c2ccc3c(c2)CCC3=O)cc1)NC(=O)[C@@H]1CNCCCO1` [Compound D09]: in assay [1], the inhibition at 0.005 µM was 30 to 75%, the inhibition at 0.05 µM lay in the range of 75 to 100% and the pIC50 was 8.00. Besides, in assay [2], the pIC50 was 8.27.

On to `N#C[C@H](Cc1ccc(-c2ccc3c(c2)COC3=O)cc1)NC(=O)[C@@H]1CNCCCO1` [Compound D44], for which, in assay [1], the inhibition at 0.005 µM is 30 to 75%, the inhibition at 0.05 µM lay within 75 to 100% and the pIC50 is 7.85. The pIC50 in assay [2] was 8.28.

Turning to `N#C[C@H](Cc1ccc(-c2ccc3sc(=O)n(C4COC4)c3c2)cc1F)NC(=O)[C@@H]1CNCCCO1` [Compound D106], the negative-log IC50 (pIC50) in assay [1] was 8.37; in assay [2] it was 8.87.

In assay [1], `N#C[C@H](Cc1ccc(-c2ccc3c(c2)COC3=O)cc1F)NC(=O)[C@@H]1CNCC2(CC2)CO1` [Compound D78] showed an inhibition at 0.005 µM of 30 to 75%, an inhibition at 0.05 µM of 75 to 100% and a pIC50 of 8.54. Besides, the pIC50 in assay [2] was 9.14.

Regarding `CN1CCC(=O)c2ccc(-c3ccc(C[C@@H](C#N)NC(=O)[C@@H]4CNCCCO4)cc3)cc21` [Compound D125], in assay [2], the negative-log IC50 (pIC50) is 8.17.

As for `N#C[C@H](Cc1ccc(-c2ccc3c(c2)C2(CCN(C4COC4)CC2)OC3)cc1)NC(=O)[C@@H]1CNCCCO1` [Compound D26], in assay [1], the inhibition at 0.005 µM fell in the range of 30 to 75%, the inhibition at 0.05 µM was 75 to 100% and the negative logarithm of the IC50 (pIC50) was 7.80. Moreover, in assay [2], the pIC50 is 8.51.

In assay [1], `N#C[C@H](Cc1ccc(-c2ccc3c(c2)C2(CCN(C4COC4)CC2)OC3=O)cc1F)NC(=O)[C@@H]1CNCCCO1` [Compound D92] had an inhibition at 0.005 µM of 30 to 75%, an inhibition at 0.05 µM of 75 to 100% and a pIC50 of 8.23. The pIC50 in assay [2] was 9.49.

Values taken from US20250101011A1, “PEPTIDYL NITRILE COMPOUND AND USE THEREOF” (SHANGHAI YIDIAN PHARMACEUTICAL TECHNOLOGY DEVELOPMENT CO., …, priority 2022, published 2025).
